# Measurements from ChEMBL document CHEMBL5647684, “Expression of Src and FAK in hepatocellular carcinoma and the effect of Src inhibitors on hepatocellular carcinoma in vitro” (2009).
# Legend:
# Assay type in all cases: functional
# PLC-PRF-5 = assay: Growth inhibition of human PLC-PRF-5 cells after 3 days by MTT assay; conditions: time 3 day
# Huh-7 = assay: Growth inhibition of human Huh-7 cells after 3 days by MTT assay; conditions: time 3 day; for GI50: Homo sapiens, Huh-7, 72 h
# Hep 3B2 = assay: Growth inhibition of human Hep3B cells after 3 days by MTT assay; conditions: time 3 day
# HepG2 = assay: Growth inhibition of human HepG2 cells after 3 days by MTT assay; conditions: time 3 day; for GI50: Homo sapiens, HepG2, 72 h
GI50 (Huh-7) [µM],GI50 (HepG2) [µM],Compound,"GI50 (PLC-PRF-5; Homo sapiens, PLC-PRF-5, 72 h) [µM]",GI80 (PLC-PRF-5) [µM],GI80 (Huh-7) [µM],"GI50 (Hep 3B2; Homo sapiens, Hep3B, 72 h) [µM]",GI80 (Hep 3B2) [µM],GI80 (HepG2) [µM]
0.009,0.06,O=C(Cc1ccc(-c2ccc(OCCN3CCOCC3)cc2)cn1)NCc1ccccc1 [TIRBANIBULIN],0.013,0.024,0.023,0.026,0.088,3.658
1.97,> 50,Cc1nc(Nc2ncc(C(=O)Nc3c(C)cccc3Cl)s2)cc(N2CCN(CCO)CC2)n1 [DASATINIB ANHYDROUS],–,–,7.135,–,–,>50
